The subject of this assay is B6C3F1 mice, B16 melanoma ip, median survival T/C. Put plainly: NCI In Vivo Anticancer Drug Screen. Data for tumor model B16 Melanoma (intraperitoneal) in B6C3F1 mice. Particulars: endpoint: median survival time, higher = longer survival. How it is done:
The antitumor activity of compounds was measured in mice bearing transplantable tumors. Survival or tumor size were measured and the results are expressed as the measurement made in the treated group (T) divided by the measurement made in the vehicle treated control group (C). The tumor model used in this assay is B16 Melanoma (intraperitoneal) in B6C3F1 mice

[1] abbreviates: dose: 12.5 mg/kg/injection, schedule: Q01DX009 (ip), vehicle: saline with Tween-80.
[2] abbreviates: dose: 25.0 mg/kg/injection, schedule: Q01DX009 (ip), vehicle: saline with Tween-80.
The mark [3] stands for this setting: dose: 50.0 mg/kg/injection, schedule: Q01DX009 (ip), vehicle: saline with Tween-80.
[4] abbreviates: dose: 100.0 mg/kg/injection, schedule: Q01DX009 (ip), vehicle: saline with Tween-80.
The mark [5] stands for this setting: dose: 50.0 mg/kg/injection, schedule: Q01DX009 (ip), vehicle: Klucel (hydroxypropylcellulose) (HPC).
The mark [6] stands for this setting: dose: 100.0 mg/kg/injection, schedule: Q01DX009 (ip), vehicle: Klucel (hydroxypropylcellulose) (HPC).
The mark [7] stands for this setting: dose: 200.0 mg/kg/injection, schedule: Q01DX009 (ip), vehicle: Klucel (hydroxypropylcellulose) (HPC).
Where [8] appears, read: dose: 200.0 mg/kg/injection, schedule: Q01DX009 (ip), vehicle: saline.
Where [9] appears, read: dose: 25.0 mg/kg/injection, schedule: Q01DX009 (ip), vehicle: Klucel (hydroxypropylcellulose) (HPC).
[10] abbreviates: dose: 12.5 mg/kg/injection, schedule: Q01DX009 (ip), vehicle: saline.
The mark [11] stands for this setting: dose: 25.0 mg/kg/injection, schedule: Q01DX009 (ip), vehicle: saline.
Where [12] appears, read: dose: 50.0 mg/kg/injection, schedule: Q01DX009 (ip), vehicle: saline.

SMILES strings stand for the structures. Where “and” joins values, the source holds several entries; their conditions need not be identical. Equal entries are not always repeated. Inconclusive results and toxic doses are left out.

Consider `COc1ccc(/C=C/C(=O)c2cc(C(=O)O)c(OC)cc2OC)cc1OC`, for which the T/C under setting [1] was 100 % of control; the T/C (dose: 12.5 mg/kg/injection, schedule: Q01DX009 (ip), vehicle: suspension in saline) is 106 % of control; the T/C under setting [2] was 94 % of control; the T/C (dose: 25.0 mg/kg/injection, schedule: Q01DX009 (ip), vehicle: suspension in saline) was 101 % of control; the T/C under setting [3] was 96 % of control; the T/C (dose: 50.0 mg/kg/injection, schedule: Q01DX009 (ip), vehicle: suspension in saline) was 106 % of control. The T/C was 88 % of control under setting [4]; 96 % of control (dose: 100.0 mg/kg/injection, schedule: Q01DX009 (ip), vehicle: suspension in saline); 96 % of control (dose: 200.0 mg/kg/injection, schedule: Q01DX009 (ip), vehicle: saline with Tween-80); 108 % of control (dose: 200.0 mg/kg/injection, schedule: Q01DX009 (ip), vehicle: suspension in saline); 98 % of control (dose: 400.0 mg/kg/injection, schedule: Q01DX009 (ip), vehicle: suspension in saline).
In the case of `CC(C)(C)Oc1ccc(CC(NC(=O)OCC2c3ccccc3-c3ccccc32)C(=O)O)cc1` (stereo not given), the T/C is 107 % of control under setting [5], 108 % of control under setting [6] and 105 % of control under setting [7].
With `CC(CNC(=O)CCOS(C)(=O)=O)NC(=O)CCOS(C)(=O)=O` (stereo not given), the T/C is 187 % of control (dose: 100.0 mg/kg/injection, schedule: Q01DX009 (ip), vehicle: saline); 177 % of control and 240 % of control under setting [8].
As for `CN(C)N=Nc1ccc2c(c1)N(C)c1ccc(Cl)cc1S2`, the T/C is, setting by setting: (dose: 6.25 mg/kg/injection, schedule: Q01DX009 (ip), vehicle: other) 99 % of control; (dose: 12.5 mg/kg/injection, schedule: Q01DX009 (ip), vehicle: other) 109 % of control; (dose: 25.0 mg/kg/injection, schedule: Q01DX009 (ip), vehicle: other) 114 % of control; (dose: 50.0 mg/kg/injection, schedule: Q01DX009 (ip), vehicle: other) 110 % of control; (dose: 100.0 mg/kg/injection, schedule: Q01DX009 (ip), vehicle: other) 114 % of control.
As to `COc1cc(C(C)(C)C)cc(OC)c1C(O)(c1c(OC)cc(C(C)(C)C)cc1OC)c1c(OC)cc(C(C)(C)C)cc1OC`, the T/C runs as follows: (dose: 6.25 mg/kg/injection, schedule: Q01DX009 (ip), vehicle: saline with Tween-80) 107 % of control; under setting [1], 114 % of control and 106 % of control; under setting [2], 112 % of control and 106 % of control; under setting [3], 117 % of control; under setting [4], 109 % of control.
With `C=C(C)[C@@H]1CC[C@]2(C(=O)OC)CC[C@]3(C)[C@H](CC[C@@H]4[C@@]5(C)CC[C@H](O)C(C)(C)[C@@H]5CC[C@]43C)[C@@H]12`, the T/C is 107 % of control under setting [9] and 86 % of control under setting [5].
With `c1ccc(CN2COc3c(ccc4c3OCN(Cc3ccccc3)C4)C2)cc1`, the T/C was 111 % of control under setting [9], 96 % of control under setting [5] and 95 % of control under setting [6].
For `CC(=O)Nc1ccc(N=Nc2c(C)nn(C(=N)N)c2C)cc1`, the T/C is 103 % of control (dose: 3.12 mg/kg/injection, schedule: Q01DX009 (ip), vehicle: saline); 99 % of control (dose: 6.25 mg/kg/injection, schedule: Q01DX009 (ip), vehicle: saline); 105 % of control under setting [10]; 95 % of control under setting [11]; 101 % of control under setting [12].
With `CCCC(=O)c1ccco1`, the T/C is 98 % of control under setting [1], 109 % of control under setting [2] and 100 % of control under setting [3].
On to `CCCCCC(=O)O[C@]1(C(C)=O)CC[C@H]2[C@@H]3CCC4=CC(=O)CC[C@]4(C)[C@H]3CC[C@@]21C`, for which the T/C by setting is: (dose: 12.5 mg/kg/injection, schedule: Q01DX009 (ip), vehicle: Klucel (hydroxypropylcellulose) (HPC)) 97 % of control and 101 % of control; under setting [9], 100 % of control and 104 % of control; under setting [5], 96 % of control and 98 % of control; under setting [6], 99 % of control and 100 % of control; under setting [7], 97 % of control and 100 % of control; (dose: 400.0 mg/kg/injection, schedule: Q01DX009 (ip), vehicle: Klucel (hydroxypropylcellulose) (HPC)) 91 % of control and 97 % of control.
On to `CN=C(N)N/N=C(\C)c1ccc2c(c1)Cc1ccccc1-2`, for which the T/C reads like this: under setting [1], 111 % of control; under setting [2], 118 % of control; under setting [3], 119 % of control; under setting [4], 122 % of control.
Regarding `CC[n+]1ccc2c(C)c3[nH]c4ccc(O)cc4c3c(C)c2c1`, the T/C (dose: 0.39 mg/kg/injection, schedule: Q01DX009 (ip), vehicle: saline) was 110 % of control and 114 % of control; the T/C (dose: 0.78 mg/kg/injection, schedule: Q01DX009 (ip), vehicle: saline) was 122 % of control; the T/C (dose: 1.56 mg/kg/injection, schedule: Q01DX009 (ip), vehicle: saline) is 123 % of control.
Take `CC(C)CC(NC(=O)C(O)C(N)Cc1ccccc1)C(=O)O` (stereo not given): the T/C reads like this: (dose: 10.0 micrograms/kg/injection, schedule: Q01DX005 (ip), vehicle: saline) 99 % of control; (dose: 10.0 micrograms/kg/injection, schedule: Q01DX005 (oral), vehicle: saline) 100 % of control; (dose: 10.0 micrograms/mouse/injection, schedule: Q01DX006 (ip), vehicle: saline) 101 % of control; (dose: 20.0 micrograms/mouse/injection, schedule: Q01DX006 (oral), vehicle: saline) 95 % of control; (dose: 100.0 micrograms/kg/injection, schedule: Q01DX005 (ip), vehicle: saline) 96 % of control; (dose: 100.0 micrograms/kg/injection, schedule: Q01DX005 (oral), vehicle: saline) 98 % of control. The T/C (dose: 100.0 micrograms/mouse/injection, schedule: Q01DX006 (ip), vehicle: saline) is 108 % of control and the T/C (dose: 200.0 micrograms/mouse/injection, schedule: Q01DX006 (oral), vehicle: saline) was 102 % of control.
Consider `C(COCCOCC1CO1)OCCOCC1CO1` (stereo not given), for which the T/C reads like this: under setting [10], 108 % of control; under setting [11], 104 % of control; under setting [12], 107 % of control; under setting [8], 153 % of control; (dose: 400.0 mg/kg/injection, schedule: Q01DX009 (ip), vehicle: saline) 178 % of control.

The values are drawn from PubChem BioAssay AID200 (DTP/NCI, 2004).
